We go through 26 compounds from US20230227427A1, “IL-17A MODULATORS” (SANOFI, priority 2010, published 2023).

SMILES strings stand for the structures.

One assay concerns the target T1, human recombinant IL-17A (Homo sapiens, UniProt Q16552).
T1 construct: purchased R&D Systems 7955-IL/CF
T1 sequence (Q16552 24-155): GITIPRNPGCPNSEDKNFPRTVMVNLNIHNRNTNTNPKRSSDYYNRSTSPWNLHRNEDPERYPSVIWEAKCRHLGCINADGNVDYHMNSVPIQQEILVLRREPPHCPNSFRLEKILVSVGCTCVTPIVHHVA
The assay is described as follows: IL-17A AlphaLISA assay (block binding of IL-17A to its receptor IL-17RA). The conditions noted are these: compounds pre-incubated with the IL-17A for 30 min (indicated by * in Table A); read-out: AlphaLISA pIC50 (converted). In a few lines:
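PBS with 0.05% Tween-20 and 0.1% BSA. IL-17A stock 7.5 nM, IL-17RA/Fc stock 5 nM; compound–cytokine pre-incubation 24 h at RT, or 30 min where marked, then 90 min with receptor. pIC50 from 4-parameter logistic AlphaLISA signal, normalised to DMSO and 6 μM reference inhibitor.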
In the case of `Cc1nn(C)c(-c2ccc(NC(=O)[C@@H](NC(=O)c3ccnn3C)C3CCCCCC3)nc2)c1C` [Example 195, (S)—N-(1-cycloheptyl-2-oxo-2-((5-(1,3,4-trimethyl-1H-pyrazol-5-yl)pyridin-2-yl)amino)ethyl)-1-methyl-1H-pyrazole-5-carboxamide], the IC50 is 501 nM. Same read-out and setting: then `CCn1nccc1C(=O)N[C@H](C(=O)Nc1ccc(-c2c(C)noc2C)cn1)C1CCCCC1` [Example 118, (S)—N-(1-Cyclohexyl-2-((5-(3,5-dimethylisoxazol-4-yl)pyridin-2-yl)amino)-2-oxoethyl)-1-ethyl-1H-pyrazole-5-carboxamide], with 158 nM; and `Cc1cncc(C)c1-c1ccc(NC(=O)C(NC(=O)c2ccnn2C)C2CCCCCCC2)cc1` (centres unmarked) [Example 103, N-(1-Cyclooctyl-2-((4-(3,5-dimethylpyridin-4-yl)phenyl)amino)-2-oxoethyl)-1-methyl-1H-pyrazole-5-carboxamide], with 126 nM; and `Cc1cnn(C)c1-c1ccc(NC(=O)C(NC(=O)c2ccnn2C)C2C3(CC3)CCC23CC3)nc1` (centres unmarked) [Example 220, N-(2-((5-(1,4-dimethyl-1H-pyrazol-5-yl)pyridin-2-yl)amino)-1-(dispiro[2.1.2^5.2^3]nonan-4-yl)-2-oxoethyl)-1-methyl-1H-pyrazole-5-carboxamide], with 31.6 nM. As to `Cc1noc(C)c1-c1ccc(NC(=O)[C@@H](NC(=O)c2ccc3n2CCNC3)C2CCCCC2)nc1` [Example 130, (S)—N-(1-Cyclohexyl-2-((5-(3,5-dimethylisoxazol-4-yl)pyridin-2-yl)amino)-2-oxoethyl)-1,2,3,4-tetrahydropyrrolo[1,2-a]pyrazine-6-carboxamide], the IC50 is 316 nM.

Turning to `CCc1nocc1C(=O)N[C@H](C(=O)Nc1ccc(-c2c(C)cnn2C)nc1)[C@H]1CC[C@H](C)CC1` [Example 155, N—((S)-2-((6-(1,4-dimethyl-1H-pyrazol-5-yl)pyridin-3-yl)amino)-1-((1r,4S)-4-methylcyclohexyl)-2-oxoethyl)-3-ethylisoxazole-4-carboxamide], the IC50 was 100 nM. On the same count and under the same terms, as for `CCc1nocc1C(=O)NC(C(=O)Nc1ccc(-c2c(C)cnn2C)cn1)[C@H]1CC[C@H](C(F)(F)F)CC1` (some centres unmarked) [Example 187, N-(2-((5-(1,4-dimethyl-1H-pyrazol-5-yl)pyridin-2-yl)amino)-2-oxo-1-((1r,4r)-4-(trifluoromethyl)cyclohexyl)ethyl)-3-ethylisoxazole-4-carboxamide], the figure is 398 nM. As for `Cc1cnn(C)c1-c1ccc(NC(=O)[C@@H](NC(=O)c2conc2C)C2CCCCCC2)nc1` [Example 136, (S)—N-(1-Cycloheptyl-2-((5-(1,4-dimethyl-1H-pyrazol-5-yl)pyridin-2-yl)amino)-2-oxoethyl)-3-methylisoxazole-4-carboxamide], the IC50 is 63.1 nM.

In the case of `COCc1onc(C)c1-c1ccc(NC(=O)[C@@H](NC(=O)c2ccnn2C)C2CCCCCC2)nc1` [Example 150, (S)—N-(1-cycloheptyl-2-((5-(5-(methoxymethyl)-3-methylisoxazol-4-yl)pyridin-2-yl)amino)-2-oxoethyl)-1-methyl-1H-pyrazole-5-carboxamide], the IC50 is 398 nM.

As for `Cc1noc(C)c1-c1ccc(NC(=O)[C@@H](NC(=O)c2cnnn2C)C2CCCCCC2)nc1` [Example 117, (S)—N-(1-Cycloheptyl-2-((5-(3,5-dimethylisoxazol-4-yl)pyridin-2-yl)amino)-2-oxoethyl)-1-methyl-1H-1,2,3-triazole-5-carboxamide], the IC50 was 501 nM. On the same count and under the same terms, as for `CCn1nccc1C(=O)N[C@H](C(=O)Nc1ccc(-c2c(C)noc2C)cn1)C1CCCCCC1` [Example 122, (S)—N-(1-Cycloheptyl-2-((5-(3,5-dimethylisoxazol-4-yl)pyridin-2-yl)amino)-2-oxoethyl)-1-ethyl-1H-pyrazole-5-carboxamide], the figure is 39.8 nM.

Take `CCc1nocc1C(=O)N[C@H](C(=O)Nc1ccc(-c2c(Cl)cnn2C)cn1)C1CCCCCC1` [Example 175, (S)—N-(2-((5-(4-chloro-1-methyl-1H-pyrazol-5-yl)pyridin-2-yl)amino)-1-cycloheptyl-2-oxoethyl)-3-ethylisoxazole-4-carboxamide]: the IC50 was 31.6 nM.

As for `Cc1cnn(C)c1-c1ccc(NC(=O)C(NC(=O)c2ccnn2C)C2CCCCCCC2)nc1` (centres unmarked) [Example 113, N-(1-Cyclooctyl-2-((5-(1,4-dimethyl-1H-pyrazol-5-yl)pyridin-2-yl)amino)-2-oxoethyl)-1-methyl-1H-pyrazole-5-carboxamide], the IC50 was 158 nM. Consider `Cc1nonc1C(=O)N[C@H](C(=O)Nc1ccc(-c2c(C)noc2C)cn1)[C@H]1CC[C@H](C)CC1` [Example 120, N—((S)-2-((5-(3,5-Dimethylisoxazol-4-yl)pyridin-2-yl)amino)-1-((1r,4S)-4-methylcyclohexyl)-2-oxoethyl)-4-methyl-1,2,5-oxadiazole-3-carboxamide], for which the IC50 is 251 nM. The same measure, in the same setting: as for `CCc1nocc1C(=O)N[C@H](C(=O)Nc1ccc(-c2c(C)n[nH]c2C)nc1)C1CCCCCC1` [Example 210, (S)—N-(1-cycloheptyl-2-((6-(3,5-dimethyl-1H-pyrazol-4-yl)pyridin-3-yl)amino)-2-oxoethyl)-3-ethylisoxazole-4-carboxamide], the figure is 63.1 nM; as for `Cc1c(-c2ccc(NC(=O)C(NC(=O)c3ccnn3C)C3CCCCCCC3)cc2)ccc(=O)n1C` (centres unmarked) [Example 107, N-(1-Cyclooctyl-2-((4-(1,2-dimethyl-6-oxo-1,6-dihydropyridin-3-yl)phenyl)amino)-2-oxoethyl)-1-methyl-1H-pyrazole-5-carboxamide], 158 nM; as for `Cc1nccc(-c2ccc(NC(=O)[C@@H](NC(=O)c3ccnn3C)[C@H]3CC[C@H](C)CC3)nc2)c1C` [Example 152, N—((S)-2-((2′,3′-dimethyl-[3,4′-bipyridin]-6-yl)amino)-1-((1r,4S)-4-methylcyclohexyl)-2-oxoethyl)-1-methyl-1H-pyrazole-5-carboxamide], 794 nM.

The assay is the same for the next values; noted with them: compounds pre-incubated with the IL-17A for 24 h at room temperature; read-out: AlphaLISA pIC50 (converted).
On to `Cn1nccc1C(=O)N[C@H](C(=O)Nc1ccc(C2=CCOCC2)cc1)[C@H]1CC[C@H](C)CC1` [Example 95, N—((S)-2-((4-(3,6-Dihydro-2H-pyran-4-yl)phenyl)amino)-1-((1r,4S)-4-methylcyclohexyl)-2-oxoethyl)-1-methyl-1H-pyrazole-5-carboxamide], for which the IC50 is 100 nM.

Take `Cn1nccc1C(=O)N[C@H](C(=O)Nc1ccc(-c2cccc3nccn23)cc1)[C@H]1CC[C@H](C)CC1` [Example 88, N—((S)-2-((4-(Imidazo[1,2-a]pyridin-5-yl)phenyl)amino)-1-((1r,4S)-4-methylcyclohexyl)-2-oxoethyl)-1-methyl-1H-pyrazole-5-carboxamide]: the IC50 was 398 nM. On the same count and under the same terms, as for `Cn1nccc1C(=O)N[C@H](C(=O)Nc1ccc(-c2c[nH]c(=O)c3[nH]cnc23)c(F)c1)C(c1ccccc1)c1ccccc1` [Example 69, (S)—N-(1-((3-fluoro-4-(4-oxo-4,5-dihydro-3H-imidazo[4,5-c]pyridin-7-yl)phenyl)amino)-1-oxo-3,3-diphenylpropan-2-yl)-1-methyl-1H-pyrazole-5-carboxamide], the figure is 79.4 nM; as for `Cn1nccc1C(=O)N[C@H](C(=O)Nc1ccc(-c2ccncc2CC(=O)N2CCCC2)cc1)[C@H]1CC[C@H](C)CC1` [Example 86, 1-Methyl-N—((S)-1-((1r,4S)-4-methylcyclohexyl)-2-oxo-2-((4-(3-(2-oxo-2-(pyrrolidin-1-yl)ethyl)pyridin-4-yl)phenyl)amino)ethyl)-1H-pyrazole-5-carboxamide], 251 nM. Still for that read-out and setting: as for `Cn1nccc1C(=O)N[C@H](C(=O)Nc1ccc(-c2ccncc2Cl)cc1)C(c1ccccc1)c1ccccc1` [Example 2, (S)—N-(1-((4-(3-chloropyridin-4-yl)phenyl)amino)-1-oxo-3,3-diphenylpropan-2-yl)-1-methyl-1H-pyrazole-5-carboxamide], the figure is 31.6 nM; as for `Cn1nccc1C(=O)N[C@H](C(=O)Nc1ccc(-c2ccncc2CC(=O)N2CCCC2)cc1)C(c1ccccc1)c1ccccc1` [Example 78, (S)-1-methyl-N-(1-oxo-1-((4-(3-(2-oxo-2-(pyrrolidin-1-yl)ethyl)pyridin-4-yl)phenyl)amino)-3,3-diphenylpropan-2-yl)-1H-pyrazole-5-carboxamide], 25.1 nM; as for `Cn1nccc1C(=O)N[C@H](C(=O)Nc1ccc(-c2ccnc3c2CCN3)cc1)C(c1ccccc1)c1ccccc1` [Example 22, (S)—N-(1-((4-(2,3-dihydro-1H-pyrrolo[2,3-b]pyridin-4-yl)phenyl)amino)-1-oxo-3,3-diphenylpropan-2-yl)-1-methyl-1H-pyrazole-5-carboxamide], 25.1 nM.

In the case of `Cc1c(-c2ccc(NC(=O)[C@@H](NC(=O)c3ccnn3C)[C@H]3CC[C@H](C)CC3)cc2)ccc(=O)n1C` [Example 33, N—((S)-2-((4-(1,2-dimethyl-6-oxo-1,6-dihydropyridin-3-yl)phenyl)amino)-1-((1r,4S)-4-methylcyclohexyl)-2-oxoethyl)-1-methyl-1H-pyrazole-5-carboxamide], the IC50 is 79.4 nM. As for `Cn1nccc1C(=O)N[C@H](C(=O)Nc1ccc(-c2ccncc2CO)cc1)C(c1ccccc1)c1ccccc1` [Example 42, (S)—N-(1-((4-(3-(hydroxymethyl)pyridin-4-yl)phenyl)amino)-1-oxo-3,3-diphenylpropan-2-yl)-1-methyl-1H-pyrazole-5-carboxamide], the IC50 was 50.1 nM.
